Data from patent publication US6426343B1, “Preparation and use of a specific GABA-Aα5 receptor ligand for treatment of Alzheimer's disease” (Merck Sharp & Dohme Ltd., priority 1995, dated 2002).

Experiments:
GABAA receptors = test: In vivo [3H]Ro 15-1788 binding in whole mouse brain
Protocol: (§1) The in vivo binding of [^3H]Ro 15-1788 to mouse brain was performed essentially as described by Goeders and Kuhar (1985). Male Swiss-Webster mice received a 0.9% NaCl solution containing 50 mCi/kg of [^3H]Ro 15-1788 (0.05 ml/10 g of body weight) via the tail vein. […] Each mouse brain was then rapidly removed, homogenised in 5.0 ml of 50 mM Tris HCl, 5.0 mM EDTA, pH 7.4 at 4° C. using an ultra-turrax homogeniser for 10 s at setting 5. In a separate series of experiments different brain regions, selected for their preferential expression of particular GABA subtypes were also examined. Binding of [^3H]Ro 15-1788 to cerebellum is almost exclusively α1-like (Quirk et al, 1994), whereas binding to spinal cord is indicative of binding to receptors containing α2 or α3-subtypes, α1, α4 and α5 are rare or absent in this region (Wisden et al, 1992). Brains were rapidly dissected into forebrain and cerebellum and the spinal cord was also removed. […] Volumes ([…]) of homogenate were filtered rapidly through GF/B filters, washed with 2×5.0 ml volumes of ice-cold buffer and the residual radioactivity was counted by liquid scintillation spectroscopy.

Male PVG hooded rats = test: Morris watermaze cognitive studies; assay type: in vivo, rat
Protocol: FG 8094 was synthesised by the Merck, Sharp and Dohme Neuroscience Research Centre's medicinal chemistry group and was suspended in 0.5% CMC. Vehicle or FG 8094 was administered IP 30 mins before the beginning of the first training trial.
Male PVG hooded rats (Bantin & Kingman, Hull U.K.), weighting approximately 300 g, were housed in groups of four with free access to food and water. The animals were maintained on a 12/12 h light-dark cycle, with the lights on at 07:00 h.
The Morris watermaze consists of a white, fibre-glass circular pool, of diameter 2 m, filled with an opaque mixture of water and white dye (E308, Morton International) maintained at 26-28° C. […] A hidden platform (13×13 cm) submerged 2 cm below the water surface was placed in the middle of the NE quadrant.
A closed-circuit video camera, fitted with a wide-angle lens, was mounted directly above the centre of the pool and connected to an image analyser which digitised the image. The digital information was relay to an Archimedes microcomputer running ‘Watermaze’ a software package supplied by Paul Fray LTD (Cambridge, UK). The software package provided the following measures: latency to reach the platform, length of path taken, average swimming speed, the time spent and the total distance travelled in the target quadrant.
The rats were assigned to four treatment groups (n=8): Vehicle, 0. 1, 0.3, 1.0 mg/kg FG 8094. During the acquisition phase of the experiment all the groups were given four trials per day. During this time the hidden platform was submerged in the NE quadrant of the watermaze. The rat was taken from the home cage and placed into the watermaze at one of four quasi-randomly determined locations (‘North’, ‘East’, ‘South’, or ‘West’) with its head facing, and almost touching, the pool wall. Trials began when the rat was released by the experimenter and ended when the rat climbed onto the platform and the mean escape latency was recorded. The maximum trial length was 60 s. If by that time the rat had not climbed on to the platform the trial ended automatically, the experimenter placed the rat on the platform and an escape latency of 60 s was recorded. The rat remained on the platform for 30 s and was then removed to a high-sided opaque plastic container for a further 30 s, (inter-trial interval, ITI). At the end of the ITI the rat was placed into the pool again, but at a different location and upon release the next trial began. This procedure was repeated until four trials had been completed.
Normally, the escape latency declines over several days of training from 60 s to around 20 s. A ‘probe trial’ assess the rat's spatial memory for the location of the hidden platform. During this trial the platform was removed from the watermaze and the rat was allowed to search the pool for 60 s before it was removed from the pool. If the treatment improves the rat's memory for the location of the platform, it will spend longer searching the quadrant in which the platform had previously been hidden (NE) than a rat given vehicle treatment.
Deficits in performance that might be due to drug-induced side-effects (such as blurred vision or motoric deficits resulting in an impaired ability to swim) were assessed using cued recall. In this procedure, the platform was also placed in the NE quadrant, but was raised 3 cm above the water level and thus visible to the rat. If the treatment has no effects on the mean escape latencies to the visible platform, then any group differences in mean escape latencies to an invisible platform can be attributed to an effect on cognitive process.
Six days following the probe trial, during which time the rats were not expose to the watermaze or administered FG 8094, the rats were again tested with the platform submerged in the NE quadrant using the acquisition protocol.
Reversal training was identical to the acquisition phase of the experiment with the exception that the platform was submerged in the middle of the SW quadrant.

Forebrain (all α) = test: In vivo [3H]Ro 15-1788 binding, forebrain; design: species or system mouse; details: 30 min, mean±SEM, relative to vehicle
Protocol: as §1, with “spectroscopy. […]” for “spectroscopy.”

[1] = test system: benzodiazepine binding site of α2/3-containing GABA receptors; test: In vivo [3H]Ro 15-1788 binding, spinal cord; details: male, Swiss-Webster, mouse, in vivo, 1 mg/kg
Protocol: (§2) The in vivo binding of [^3H]Ro 15-1788 to mouse brain was performed essentially as described by Goeders and Kuhar (1985). Male Swiss-Webster mice received a 0.9% NaCl solution containing 50 mCi/kg of [^3H]Ro 15-1788 (0.05 ml/10 g of body weight) via the tail vein. […] Each mouse brain was then rapidly removed, homogenised in 5.0 ml of 50 mM Tris HCl, 5.0 mM EDTA, pH 7.4 at 4° C. using an ultra-turrax homogeniser for 10 s at setting 5. In a separate series of experiments different brain regions, selected for their preferential expression of particular GABA subtypes were also examined. Binding of [^3H]Ro 15-1788 to cerebellum is almost exclusively α1-like (Quirk et al, 1994), whereas binding to spinal cord is indicative of binding to receptors containing α2 or α3-subtypes, α1, α4 and α5 are rare or absent in this region (Wisden et al, 1992). Brains were rapidly dissected into forebrain and cerebellum and the spinal cord was also removed. Each forebrain was homogenised in 4.0 ml of buffer (approximately 14 ml/g wet weight of tissue), each cerebellum was homogenised in 1.0 ml of buffer (approximately 14 ml/g wet weight of tissue) and each spinal cord in 1.0 ml of buffer (approximately […] wet weight of tissue). Volumes ([…]) of homogenate were filtered rapidly through GF/B filters, washed with 2×5.0 ml volumes of ice-cold buffer and the residual radioactivity was counted by liquid scintillation spectroscopy.
(§3) Mice were injected intraperitoneally with FG 8094, 10 mg/kg or 1 mg/kg, 30 minutes prior to sacrifice and [^3H]Ro 15-1788 (0.1 mCi/g). Brain regions were dissected, homogenised and filtered as described in methods.

Spinal cord (α2/3) = test: In vivo [3H]Ro 15-1788 binding, spinal cord; details: for percentage inhibition of in vivo [3H]Ro 15-1788 binding, spinal cord: 30 min, mean±SEM, relative to vehicle
Protocol: as §2, §3

α6β3γ2 = molecular target: T1, α6β3γ2 (Homo sapiens, UniProt P18507+Q16445); test: Radioligand binding, membranes of stably transfected cells
T1 construct: expressed in transfected cells

[2] = molecular target: α5 subtype containing GABA-A receptors (Rattus norvegicus, UniProt P18508+P19969); test: In vivo [3H]FG 8094 binding after pellet implantation; details: SC pellet, after first four swim trials, [3H]FG 8094 IV
Sequence of α5 subtype containing GABA-A receptors (P19969 32-464 limits assumed): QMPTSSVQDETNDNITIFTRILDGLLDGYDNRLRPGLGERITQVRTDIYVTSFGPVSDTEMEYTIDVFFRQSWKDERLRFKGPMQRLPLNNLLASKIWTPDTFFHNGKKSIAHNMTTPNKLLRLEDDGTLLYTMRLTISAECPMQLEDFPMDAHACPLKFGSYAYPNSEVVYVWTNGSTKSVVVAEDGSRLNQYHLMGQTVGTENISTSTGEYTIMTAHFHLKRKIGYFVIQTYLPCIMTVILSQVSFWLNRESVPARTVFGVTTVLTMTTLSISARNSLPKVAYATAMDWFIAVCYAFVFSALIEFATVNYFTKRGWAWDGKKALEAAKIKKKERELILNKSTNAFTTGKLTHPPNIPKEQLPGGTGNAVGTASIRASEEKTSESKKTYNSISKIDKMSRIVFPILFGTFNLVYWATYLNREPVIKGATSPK
Sequence of α5 subtype containing GABA-A receptors (P18508 39-466): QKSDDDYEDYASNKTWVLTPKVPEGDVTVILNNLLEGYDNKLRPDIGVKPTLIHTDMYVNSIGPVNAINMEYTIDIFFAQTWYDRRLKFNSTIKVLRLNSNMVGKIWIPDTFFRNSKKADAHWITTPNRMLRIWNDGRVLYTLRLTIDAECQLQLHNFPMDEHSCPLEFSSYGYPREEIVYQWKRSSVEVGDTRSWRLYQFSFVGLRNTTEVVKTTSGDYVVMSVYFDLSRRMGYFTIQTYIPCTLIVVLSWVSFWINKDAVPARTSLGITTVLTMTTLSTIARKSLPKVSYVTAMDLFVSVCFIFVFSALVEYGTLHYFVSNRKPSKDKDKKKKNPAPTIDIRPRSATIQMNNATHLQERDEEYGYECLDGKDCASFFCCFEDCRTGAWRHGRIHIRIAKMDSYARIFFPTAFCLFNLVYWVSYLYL
Sequence of α5 subtype containing GABA-A receptors (P63079 26-473 partner): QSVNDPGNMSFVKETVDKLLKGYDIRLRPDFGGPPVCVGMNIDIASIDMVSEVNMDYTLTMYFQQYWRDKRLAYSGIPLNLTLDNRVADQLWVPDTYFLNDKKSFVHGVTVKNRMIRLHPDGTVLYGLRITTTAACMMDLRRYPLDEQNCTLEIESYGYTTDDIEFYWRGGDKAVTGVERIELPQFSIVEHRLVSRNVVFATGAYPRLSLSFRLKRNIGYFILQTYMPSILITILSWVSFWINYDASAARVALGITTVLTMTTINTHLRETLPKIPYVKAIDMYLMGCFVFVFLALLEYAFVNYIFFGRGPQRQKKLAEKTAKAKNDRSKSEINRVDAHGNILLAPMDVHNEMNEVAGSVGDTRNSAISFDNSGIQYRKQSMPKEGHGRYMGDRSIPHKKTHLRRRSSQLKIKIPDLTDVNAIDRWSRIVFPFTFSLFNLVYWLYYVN
Protocol: In a second experiment the vehicle or FG pellets were implanted into rats exactly as described above. However, after the first four swim trials the animals were injected (IV) with [^3H]FG 8094 and three mins later the brains of the animals were rapidly removed.

T1 sequence (Q16445 20-453): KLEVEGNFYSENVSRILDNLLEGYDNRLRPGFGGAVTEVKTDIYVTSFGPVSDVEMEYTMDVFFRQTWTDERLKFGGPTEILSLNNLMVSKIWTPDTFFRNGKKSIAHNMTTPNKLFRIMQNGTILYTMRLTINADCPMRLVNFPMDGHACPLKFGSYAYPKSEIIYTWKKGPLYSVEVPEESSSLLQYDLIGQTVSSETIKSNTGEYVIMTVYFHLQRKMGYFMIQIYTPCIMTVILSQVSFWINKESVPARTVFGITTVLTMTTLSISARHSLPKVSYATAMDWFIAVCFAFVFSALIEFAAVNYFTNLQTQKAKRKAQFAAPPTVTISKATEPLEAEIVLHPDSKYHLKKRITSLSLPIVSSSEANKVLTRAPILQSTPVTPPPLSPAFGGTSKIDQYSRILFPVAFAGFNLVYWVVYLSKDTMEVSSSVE
T1 sequence (P28472 26-473 partner): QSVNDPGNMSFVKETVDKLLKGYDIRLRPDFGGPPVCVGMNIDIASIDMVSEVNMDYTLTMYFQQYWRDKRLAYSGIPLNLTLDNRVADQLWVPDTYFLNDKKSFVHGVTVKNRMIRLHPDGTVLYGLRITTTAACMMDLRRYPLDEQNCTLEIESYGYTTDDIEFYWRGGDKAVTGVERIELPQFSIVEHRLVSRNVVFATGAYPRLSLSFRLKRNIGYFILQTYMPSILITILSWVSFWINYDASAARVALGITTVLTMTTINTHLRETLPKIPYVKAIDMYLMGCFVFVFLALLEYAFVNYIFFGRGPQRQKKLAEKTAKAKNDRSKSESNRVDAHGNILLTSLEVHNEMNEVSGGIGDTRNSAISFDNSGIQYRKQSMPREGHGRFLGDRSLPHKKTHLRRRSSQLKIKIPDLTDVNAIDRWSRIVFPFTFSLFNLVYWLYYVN
T1 sequence (P18507 40-467 isoform P18507-1 limits assumed): as the sequence (P18508 39-466) above

## CCOC(=O)c1ncn2c1[C@@H]1CCCN1C(=O)c1cc(OC)ccc1-2 [FG 8094, 9H-imidazo[1,5-a]pyrrolo[2,1-C][1,4]benzodiazepine-1-carboxylic acid, 11, 12, 13, 13a-tetrahydro-7-methoxy-9-oxo-, ethyl ester, (S)-(9CI)]
GABAA receptors; 10.0 mg/kg intraperitoneally, p<0.05
  displacement of [3H]Ro 15-1788 binding, whole brain: significantly displaced
GABAA receptors; intraperitoneally at doses of up to 3.0 mg/kg
  displacement of specific [3H]Ro 15-1788 binding, whole brain: did not significantly displace
Male PVG hooded rats; 0.1, 0.3, 1.0 mg/kg IP
  cued recall, mean escape latency to the visible platform: no significant effect of dose
  probe trial, time spent searching the platform quadrant: no difference in the amount of time the control and drug groups spent searching the quadrant
Male PVG hooded rats; 0.1, 0.3, 1.0 mg/kg IP, post hoc Newman-Keuls
  cued recall, mean path length: vehicle group traversed a significantly longer path than all the groups given FG 8094
Male PVG hooded rats; 0.3 and 1.0 mg/kg IP, nine day training
  mean escape latencies, acquisition trials: appear to be shorter than the vehicle control group or the 0.1 mg/kg group, the observation was not confirmed by Newman Keul post hoc tests
Male PVG hooded rats; acquisition trials, 0.1, 0.3, 1.0 mg/kg IP
  mean swimming speed during escape to the hidden platform: no significant effect of dose
Male PVG hooded rats; platform moved to Southwest quadrant, first reversal day, p<0.05
  reversal learning, mean escape latency: mean escape latency of the vehicle group was significantly longer than all of the FG 8094 groups
Male PVG hooded rats; six days after probe trial, 0.1, 0.3, 1.0 mg/kg, p<0.05
  recall test, mean escape latency: mean escape latency of the vehicle group was longer than any of the FG 8094 groups
Forebrain (all α); 1 mg/kg ip
  percentage inhibition of in vivo [3H]Ro 15-1788 binding, forebrain: 8.3 ± 3.2
Forebrain (all α); 10 mg/kg ip
  percentage inhibition of in vivo [3H]Ro 15-1788 binding, forebrain: 53.3 ± 4.2
[1]
  concentration at 30 min: 13.2 nM
Spinal cord (α2/3); 1.0 mg/kg
  occupancy of α2/3 receptors: less than 35%
Spinal cord (α2/3); 1 mg/kg ip
  percentage inhibition of in vivo [3H]Ro 15-1788 binding, spinal cord: 33.8 ± 7.4
Spinal cord (α2/3); 10 mg/kg ip
  percentage inhibition of in vivo [3H]Ro 15-1788 binding, spinal cord: 74.2 ± 3.8
α6β3γ2
  Ki: 83.2 ± 4.5 nM
[2]
  occupancy of α5 subtype containing GABA-A receptors in the brain: approximately 85%
